Laboratory results: patent publication US20260276636A1, “METHOD FOR SPECIFIC AND RAPID QUANTIFICATION OF THE TOTAL VIABLE BACTERIAL COUNT IN RAW MILK” (National Institute of Metrology, priority 2023, published 2026)

Legend:
[1] = test system: B. subtilis; assay: Minimum inhibitory concentration (MIC) assay; assay type: cell-based, Bacillus subtilis; details: 96-well plate, 37° C., 48 h; ATCC 6633
Experimental: (§1) • 1. Culture of bacterial strains. After the four bacterial strains were activated on a nutrient agar plate, a single colony was picked, inoculated to TSB medium (10 g/L peptone, 3 g/L beef extract powder, and 5 g/L sodium chloride), incubated at 37° C. for 6 h to the mid-logarithmic stage, and then centrifuged at 8000 rpm for 5 min to collect the bacterial cells. The collected bacterial cells were suspended in fresh TSB medium at a bacterial suspension concentration of approximately 10^7 cells/mL. • 2. Antibiotics. […] Antibiotics were purchased from Shanghai Yuanye Biotechnology Co., Ltd. An appropriate amount of antibiotics was weighed and dissolved in DSMO to prepare a stock solution of a cell division inhibitor, which was stored in the dark at −20° C. • 3. Minimum inhibitory concentration (MIC) assay. The above four bacterial suspensions were plated in a 96-well plate, to which antibiotics were added at final concentrations of […], and then incubated at 37° C. for 48 h. Bacterial growth was analyzed using a microplate reader, and the smallest concentration of antibiotics that could inhibit the growth of bacteria was defined as the minimum inhibitory concentration. • 4. Evaluation of inhibitory effect on bacterial division. […] After centrifugation at 8000 rpm, the bacterial cells were collected and resuspended in the PBS buffer, and the changes in the number of bacteria in the sample were analyzed using the forward scatter signals on the flow cytometer. • 5. Detection of bacterial viability. […] SYTO9 labeled all bacteria in green and PI labeled dead bacteria in red. The above labeling system was left at room temperature for 30 min in the dark, washed and centrifuged with PBS twice, and the percentages of viable and dead bacteria were analyzed using a flow cytometer. Measurement and analysis were performed using an Apogee A50 flow cytometer. At an excitation wavelength of 488 nm, a flow rate of 3-25 μL/min and a detection time of 10-100 s, the total number of bacteria was analyzed in the green fluorescence channel, and the number of dead bacteria was analyzed in the red fluorescence channel.

[2] = test system: E. coli; assay: Minimum inhibitory concentration (MIC) assay; assay type: cell-based, Escherichia coli; details: 96-well plate, 37° C., 48 h; ATCC 10798
Experimental: as §1

[3] = test system: S. aureus; assay: Minimum inhibitory concentration (MIC) assay; assay type: cell-based, Staphylococcus aureus; details: 96-well plate, 37° C., 48 h; ATCC 29213
Experimental: as §1

[4] = test system: L. lactis; assay: Minimum inhibitory concentration (MIC) assay; assay type: cell-based, Lactococcus lactis; details: 96-well plate, 37° C., 48 h; ATCC 19257
Experimental: as §1

[5] = test system: four species of bacteria (B. subtilis, E. coli, S. aureus, L. lactis); assay: Evaluation of inhibitory effect on bacterial division (flow cytometry); assay type: cell-based; details: 1 μg/mL, 2 h of treatment, compared to blank control; FIG. 7
Experimental: (§2) • 1. Culture of bacterial strains. After the four bacterial strains were activated on a nutrient agar plate, a single colony was picked, inoculated to TSB medium (10 g/L peptone, 3 g/L beef extract powder, and 5 g/L sodium chloride), incubated at 37° C. for 6 h to the mid-logarithmic stage, and then centrifuged at 8000 rpm for 5 min to collect the bacterial cells. The collected bacterial cells were suspended in fresh TSB medium at a bacterial suspension concentration of approximately 10^7 cells/mL. • 2. Antibiotics. […] Bacterial growth was analyzed using a microplate reader, and the smallest concentration of antibiotics that could inhibit the growth of bacteria was defined as the minimum inhibitory concentration. • 4. […] After centrifugation at 8000 rpm, the bacterial cells were collected and resuspended in the PBS buffer, and the changes in the number of bacteria in the sample were analyzed using the forward scatter signals on the flow cytometer. • 5. […] The above labeling system was left at room temperature for 30 min in the dark, washed and centrifuged with PBS twice, and the percentages of viable and dead bacteria were analyzed using a flow cytometer. […]

[6] = test system: Staphylococcus aureus; details: 2 h
Experimental: as §2

[7] = test system: B. subtilis, E. coli, S. aureus, and L. lactis; assay: Fluorescence microscopy observation of FADA-labeled bacteria; assay type: cell-based; details: 300 μM, 37° C., 6 h; FIG. 1
Experimental: (§3) • 1. Staphylococcus aureus (Deposit number: ATCC 29213), Escherichia coli (Deposit number: ATCC 10798), Lactococcus lactis (Deposit number: ATCC 19257), and Bacillus subtilis (Deposit number: ATCC 6633). The four bacterial strains are the dominant bacteria or the important indicator and pathogenic bacteria in raw milk. • 2. […] Labeling method. […] Fluorescence microscopy observation method. […] 10 μL of bacterial suspension was added onto a slide to prepare an observation sample, which was observed using a 100× oil lens and FITC fluorescence channel. Brightfield images and fluorescence field images were recorded separately. • 5. Flow cytometry. […] The sample not incubated with FADA was used as the negative control.

[8] = test system: four species of bacteria (B. subtilis, E. coli, S. aureus, L. lactis); assay: Labeling efficiency by flow cytometry; assay type: cell-based
Experimental: as §3, with “Optimization of labeling conditions.” for “The sample not incubated with FADA was used as the negative control.”

[9] = test system: Cow-derived fresh Leukocytes; assay: Specific labeling in mixed samples, fluorescence microscopy; assay type: cell-based; details: 500 μM, 37° C., 6 h, mixed with S. aureus; FIG. 6
Experimental: (§4) • 1. Activation of bacterial strain. After Staphylococcus aureus was activated on a nutrient agar plate, a single colony was picked, inoculated to TSB medium (10 g/L peptone, 3 g/L beef extract powder, and 5 g/L sodium chloride), incubated at 37° C. for 6 h to the mid-logarithmic stage, and then centrifuged at 8000 rpm for 5 min to collect the bacterial cells. The collected bacterial cells were suspended in fresh TSB medium at a bacterial suspension concentration of approximately 10^7 cells/mL. • 2.

[10] = test system: Saccharomyces cerevisiae; assay: as above; assay type: cell-based; details: 500 μM, 37° C., 6 h, mixed with S. aureus; FIG. 6
Experimental: as §4

[11] = test system: Staphylococcus aureus; assay: as above; assay type: cell-based; details: 500 μM, 37° C., 6 h, mixed with yeast or cow leukocytes; FIG. 6
Experimental: as §4

[12] = test system: E. coli; assay: Fluorescent labeling in presence of bacterial cell division inhibitor (flow cytometry); assay type: cell-based, Escherichia coli; details: 500 μM, 2 h, with bacterial cell division inhibitor, FIG. 8
Source text: (§5) • 1. Culture of bacterial strains. […] Fluorescent labeling with FADA. […] Fluorescent labeling with FADAA (Amino FADA).

[13] = test system: L. lactis; assay: as above; assay type: cell-based, Lactococcus lactis; details: 500 μM, 2 h, with bacterial cell division inhibitor, FIG. 8
Source text: as §5

| Compound | Resistance to quinolone antibiotics (MIC), B. subtilis [1] [µg/mL] | Resistance to quinolone antibiotics (MIC), E. coli [2] [µg/mL] | Resistance to quinolone antibiotics (MIC), S. aureus [3] [µg/mL] | Resistance to quinolone antibiotics (MIC), L. lactis [4] [µg/mL] | Inhibition of cell division of the four species of bacteria [5] | bacterial viability after antibiotic treatment [6] [%] | Fluorescent labeling of bacterial cells under fluorescence microscope [7] | labeling efficiency ([8]; 300 μM, 37° C., 6 h, FIG. 2) [%] | labeling efficiency ([8]; 500 μM, 4 h, FIG. 3) | Fluorescent labeling of somatic cells (cow leukocytes) in mixed sample [9] | Fluorescent labeling of yeast in mixed sample [10] | Fluorescent labeling of S. aureus in mixed samples [11] | labeling effect (labeling efficiency) [12] [%] | labeling effect (labeling efficiency) [13] [%] |
| --- | --- | --- | --- | --- | --- | --- | --- | --- | --- | --- | --- | --- | --- | --- |
| O=C(O)c1cn(C2CC2)c2cc(N3CCNCC3)c(F)cc2c1=O [Ciprofloxacin, ciprofloxacin] | 1 | 0.5 | 1 | 1 | efficient inhibition of cell division | – | – | – | – | – | – | – | – | – |
| C[C@H]1COc2c(N3CCN(C)CC3)c(F)cc3c(=O)c(C(=O)O)cn1c23 [Levofloxacin, levofloxacin] | 2 | <0.25 | <0.25 | 0.5 | – | – | – | – | – | – | – | – | – | – |
| COc1c(N2C[C@@H]3CCCN[C@@H]3C2)c(F)cc2c(=O)c(C(=O)O)cn(C3CC3)c12 [Moxifloxacin, moxifloxacin] | 8 | 1 | 4 | 2 | – | 88.1 | – | – | – | – | – | – | – | – |
| CCn1cc(C(=O)O)c(=O)c2ccc(C)nc21 [Nalidixic acid, nalidixic acid] | 128 | 4 | 64 | >256 | – | – | – | – | – | – | – | – | – | – |
| Carboxyfluorescein-labeled amino-D-alanine [FADA] | – | – | – | – | – | – | all cells in the field of view were found fluorescently labeled | > 98.5 | more than 98.5% | not labeled | not labeled | fluorescently labeled | 81.6 | 57.1 |
